Data as given in US9504729B2, “Antiangiogenic small molecules and methods of use” (The United States of America, as represented by the …, priority 2009, dated 2016).

Legend:
KDR(VEGFR2) = KDR(VEGFR2) (Homo sapiens, UniProt P35968); assay: SelectScreen kinase activity profiling, KDR(VEGFR2); format: biochemical; parameters: % Inhibition / Mean % Inhibition: concentration or dose not given beside the values; settings: KDR(VEGFR2); for Mean % Inhibition: mean of two independent trials
Text: (§1) To characterize the RTK inhibitory activity of the antiangiogenic SMs described herein, 36 compounds were chosen and screened using Invitrogen's SelectScreen® kinase activity profiling service (described on-line at tools.invitrogen.com/content.cfm?pageid=10413#selection). VEGFR1 and FGFR2 RTK inhibitory activities were studied. […] Overall, a small minority of the SMs tested had any substantial kinase inhibitory activity. This observation supports a mechanism of antiangiogenic action other than RTK inhibition for most of the SMs described herein.

FGFR1 = FGFR1 (Homo sapiens, UniProt P11362); assay: SelectScreen kinase activity profiling, FGFR1; format: biochemical; parameters: concentration or dose not given beside the values; settings: for Mean % Inhibition: mean of two independent trials
Text: as §1

in vitro = settings: pig
[1] = first of two independent trials
[2] = second of two independent trials

Chain of KDR(VEGFR2) (P35968 20-1356): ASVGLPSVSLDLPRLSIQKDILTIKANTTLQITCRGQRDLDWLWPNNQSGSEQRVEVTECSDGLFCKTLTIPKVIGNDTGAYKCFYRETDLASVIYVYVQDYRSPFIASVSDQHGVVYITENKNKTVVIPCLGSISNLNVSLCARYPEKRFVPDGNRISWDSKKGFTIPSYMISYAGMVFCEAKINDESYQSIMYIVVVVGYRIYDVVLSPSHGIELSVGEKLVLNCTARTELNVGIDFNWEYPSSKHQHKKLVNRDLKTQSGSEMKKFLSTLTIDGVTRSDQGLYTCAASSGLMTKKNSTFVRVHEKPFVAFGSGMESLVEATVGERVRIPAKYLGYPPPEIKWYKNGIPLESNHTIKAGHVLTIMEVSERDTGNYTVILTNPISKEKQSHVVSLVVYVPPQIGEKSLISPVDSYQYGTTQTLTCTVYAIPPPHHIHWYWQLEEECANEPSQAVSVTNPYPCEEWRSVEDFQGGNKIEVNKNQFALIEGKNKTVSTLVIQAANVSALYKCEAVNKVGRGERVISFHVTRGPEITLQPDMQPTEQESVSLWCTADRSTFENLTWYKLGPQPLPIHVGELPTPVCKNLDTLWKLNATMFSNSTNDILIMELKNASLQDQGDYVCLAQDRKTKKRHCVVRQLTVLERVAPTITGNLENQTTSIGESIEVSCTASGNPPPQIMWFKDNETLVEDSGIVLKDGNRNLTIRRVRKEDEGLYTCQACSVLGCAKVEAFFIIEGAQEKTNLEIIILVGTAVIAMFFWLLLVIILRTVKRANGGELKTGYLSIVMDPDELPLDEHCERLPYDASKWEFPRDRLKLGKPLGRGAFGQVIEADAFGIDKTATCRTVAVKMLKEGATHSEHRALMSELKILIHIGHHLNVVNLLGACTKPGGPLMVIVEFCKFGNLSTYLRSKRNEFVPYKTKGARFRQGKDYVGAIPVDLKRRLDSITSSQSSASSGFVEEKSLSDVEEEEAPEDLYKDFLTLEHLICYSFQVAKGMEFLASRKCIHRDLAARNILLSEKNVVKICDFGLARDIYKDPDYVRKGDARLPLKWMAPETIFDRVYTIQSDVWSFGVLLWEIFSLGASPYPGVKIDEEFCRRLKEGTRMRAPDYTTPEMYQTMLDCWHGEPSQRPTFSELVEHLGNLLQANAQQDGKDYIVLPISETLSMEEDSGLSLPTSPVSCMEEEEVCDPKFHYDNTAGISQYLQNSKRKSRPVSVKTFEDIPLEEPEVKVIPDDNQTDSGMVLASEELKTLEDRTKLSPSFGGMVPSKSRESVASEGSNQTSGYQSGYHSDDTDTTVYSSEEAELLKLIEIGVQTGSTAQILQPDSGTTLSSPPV
Chain of FGFR1 (P11362 398-822 limits assumed): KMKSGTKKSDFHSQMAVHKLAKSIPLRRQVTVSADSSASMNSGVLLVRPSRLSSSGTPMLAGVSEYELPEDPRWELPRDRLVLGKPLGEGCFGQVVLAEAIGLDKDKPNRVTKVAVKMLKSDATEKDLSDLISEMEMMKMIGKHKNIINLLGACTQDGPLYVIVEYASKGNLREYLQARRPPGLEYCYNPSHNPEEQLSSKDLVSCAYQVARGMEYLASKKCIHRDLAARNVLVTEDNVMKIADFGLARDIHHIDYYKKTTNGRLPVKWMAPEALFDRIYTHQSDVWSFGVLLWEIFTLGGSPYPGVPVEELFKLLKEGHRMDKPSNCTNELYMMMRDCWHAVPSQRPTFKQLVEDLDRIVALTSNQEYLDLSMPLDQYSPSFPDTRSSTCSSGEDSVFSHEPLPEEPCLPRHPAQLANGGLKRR

SMILES | % Inhibition (KDR(VEGFR2); [1]) [%] | Mean % Inhibition (KDR(VEGFR2)) [%] | % Inhibition (KDR(VEGFR2); [2]) [%] | % Inhibition (FGFR1; [1]) [%] | Mean % Inhibition (FGFR1) [%] | % Inhibition (FGFR1; [2]) [%] | cytotoxicity (in vitro) [%]
CC(C)(C)c1cc(C#N)cc(Br)c1OP(=O)(Oc1c(Br)cc(C#N)cc1C(C)(C)C)c1ccccc1 [compound 203328] | 9 | 8 | 7 | 4 | 4 | 4 | –
CC1(C)C2CCC1(C)C(OC(=O)CSC#N)C2 (stereo not drawn) [compound 3535] | 10 | 8 | 5 | −1 | −2 | −3 | –
CC(C)(C)c1c2c(c(C(C)(C)C)c3c1OCN(Cc1ccccc1)C3)OCN(Cc1ccccc1)C2 [compound 48458] | 13 | 11 | 9 | 5 | 6 | 8 | –
O=C1c2ccccc2NC(c2cc(Cl)cc(Cl)c2O)N1CCc1ccccn1 (stereo not drawn) [compound 328087] | 9 | 9 | 9 | 3 | 4 | 5 | –
N=C1NC2=[S+][Hg]([c]3ccc(N)cc3)[n+]3cn(C4OC(CO)C(O)C4O)c(c32)N1 (stereo not drawn) [Compound 57, Mercury, (4-aminophenyl)(6-thioguanosinato-N7,S6)-] | – | – | – | – | – | – | 7.38
CC(C)(C)c1c2c(c(C(C)(C)C)c3c1OCN(Cc1ccccc1)C3)OCN(Cc1ccccc1)C2 [Compound 51, 3,8-dibenzyl-5,10-ditert-butyl-2,4,7,9-tetrahydro-[1,3]oxazino[6,5-g][1,3]benzoxazine] | – | – | – | – | – | – | 8.56
C1=Cc2ccccc2C1.C=C(C)c1ccccc1.[N-]=[N+]=Nc1ccccc1 [compound 122351] | 4 | 4 | 4 | −1 | 1 | 4 | –
OC(c1cc(-c2ccccc2)nc2c1ccc1ccccc12)C1CCCCN1 (stereo not drawn) [compound 13480] | 4 | 3 | 2 | 5 | 8 | 10 | –
Cc1cc(O)c(-c2cc(O)c(C)cc2O)cc1O [Compound 40, 2-(2,5-dihydroxy-4-methylphenyl)-5-methylbenzene-1,4-diol] | – | – | – | – | – | – | 7.23
O=C1c2ccccc2NC(c2cc(Cl)cc(Cl)c2O)N1CCc1ccccn1 (stereo not drawn) [Compound 53, 2-(3,5-dichloro-2-hydroxyphenyl)-3-(2-pyridin-2-ylethyl)-1,2-dihydroquinazolin-4-one] | – | – | – | – | – | – | 8.76
Cc1ccc(S(=O)(=O)OCC(=O)O)cc1 [Compound 41, 2-(4-methylphenyl)sulfonyloxyacetic acid] | – | – | – | – | – | – | 7.59
O=[As](O)(O)c1ccc(Cc2ccc([As](=O)(O)O)cc2)cc1 [compound 48300] | 76 | 77 | 78 | 8 | 9 | 10 | –
S=C1SCN(C2CCCCCCCCCCC2)CN1C1CCCCCCCCCCC1 [compound 209910] | 9 | 10 | 10 | 2 | 4 | 5 | –
CCCCC[CH2][Hg][S]c1nc(N)nc2[nH]cnc12 [compound 268879] | 40 | 39 | 38 | 3 | 1 | −2 | –
COc1ccc(NCc2c(O)ccc3ccccc23)cc1 [compound 47924] | 21 | 19 | 18 | 1 | 2 | 3 | –
CC(C)(C)c1cc(O)ccc1O [compound 4972] | 2 | 7 | 11 | 3 | −2 | −7 | –
NC(=O)SCC(=O)Nc1ccc2ncccc2c1 [compound 36738] | 16 | 16 | 17 | −1 | 1 | 4 | –
CC1(C)CC(Nc2ccc(Nc3ccccc3)cc2)CC(C)(C)N1 [Compound 48, 4-N-phenyl-1-N-(2,2,6,6-tetramethylpiperidin-4-yl)benzene-1,4-diamine] | – | – | – | – | – | – | 7.01

SMILES | % Inhibition (KDR(VEGFR2); [1]) [%] | Mean % Inhibition (KDR(VEGFR2)) [%] | % Inhibition (KDR(VEGFR2); [2]) [%] | % Inhibition (FGFR1; [1]) [%] | Mean % Inhibition (FGFR1) [%] | % Inhibition (FGFR1; [2]) [%] | cytotoxicity (in vitro) [%]
COc1ccc(-c2csc3c2-n2cccc2C3=O)cc1 [compound 676693] | 1 | 5 | 8 | 4 | 3 | 3 | –
CC1=C(Br)C(=O)C(C)=C(Br)C1=O.Cc1c(O)c(Br)c(C)c(O)c1Br [compound 112200] | 100 | 99 | 99 | 9 | 7 | 5 | –
CC1(C)CC(Nc2ccc(Nc3ccccc3)cc2)CC(C)(C)N1 [compound 632536] | 15 | 16 | 16 | 1 | 4 | 7 | –
O=C(c1no[n+]([O-])c1C(=O)c1csc2ccccc12)c1csc2ccccc12 [compound 18877] | 10 | 7 | 4 | −3 | −2 | 0 | –
COC(=O)c1ccc(CCc2cc(O)ccc2O)cc1 [compound 681152] | 10 | 9 | 8 | 4 | 3 | 3 | –
CC(C)(O)/C=C/C(=O)C(C)(O)C1C(O)CC2(C)C3CC=C4C(C=C(O)C(=O)C4(C)C)C3(C)C(=O)CC12C (stereo not drawn) [compound 521777] | 10 | 9 | 8 | 1 | 1 | 0 | –
Nc1cc[c]([Hg])cc1.Nc1nc2c(ncn2C2OC(CO)C(O)C2O)c(=[SH+])[nH]1 (stereo not drawn) [compound 321237] | 105 | 105 | 104 | 7 | 6 | 5 | –
O=[N+]([O-])c1ccc(S(=O)(=O)Cc2ccccc2)c([N+](=O)[O-])c1 [compound 122657] | 14 | 14 | 14 | −3 | −3 | −3 | –
O=C(O)c1c(Br)c(Br)c(Br)c(Br)c1C1c2ccc(O)cc2Oc2cc(O)ccc21 [compound 119889] | 103 | 103 | 104 | 96 | 96 | 95 | –
CSC(=[SH+])[N-]N=C(c1ccccn1)c1ccccn1.[Cu][Br] [compound 321206] | 52 | 49 | 45 | 5 | 5 | 5 | –
O=C(O)C1CCCN1Cc1ccc2c(c1)OCO2 (stereo not drawn) [compound 108895] | 5 | 6 | 6 | 4 | 4 | 4 | –
Cc1cc(O)c(-c2cc(O)c(C)cc2O)cc1O [compound 2805] | 42 | 47 | 52 | 1 | 6 | 10 | –
Cc1ccc(S(=O)(=O)OCC(=O)O)cc1 [compound 16555] | 11 | 11 | 11 | 3 | 3 | 3 | –
COc1ccc(CC2C(=O)NC(C)C(=O)N(C)C3C(=O)N(C)C(Cc4ccc(O)c(c4)Oc4ccc(cc4)C3O)C(=O)NC(C)C(=O)NC(C)C(=O)N2C)cc1 (stereo not drawn) [compound 259968] | 8 | 8 | 9 | 5 | 3 | 2 | –
CS(=O)(=O)c1ccc(/C=N/NC(N)=S)cc1 [compound 27063] | 12 | 11 | 11 | −3 | −3 | −2 | –
CSC(=[SH+])[N-]N=Cc1cccc(C)n1.CSC(=[SH+])[N-]N=Cc1cccc(C)n1.[Cu] [compound 310551] | 21 | 20 | 18 | −5 | −3 | −1 | –
CC(=N[N-]C(=S)SCc1ccccc1)c1ccccn1.[Cl][Cu+] [compound 295642] | 19 | 18 | 17 | 2 | 6 | 9 | –
